# Source: paper PMC4503722, “Novel Phenotypic Outcomes Identified for a Public Collection of Approved Drugs from a Publicly Accessible Panel of Assays” (PLoS ONE, 2015)
# Like-named read-outs stand apart in the source and are kept apart here.
# Tests used:
# [1] = test system: INS-1E cells; assay: cells; format: cell-based, rat;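 note: secreted insulin quantified by homogeneous immunoassay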
# [2] = test system: NCI-H716 cells; assay: cells; format: cell-based, Human
# [3] = test system: ECFC/ADSC co-culture cell nuclei number
# [4] = test system: HCT116 cells treated with a GSK3β inhibitor; assay: cells; format: cell-based; conditions: assay number 26; GSK3b inhibitor pretreated
# [5] = test system: Colo320; assay: cells; format: cell-based; conditions: assay number 27; basal
# [6] = test system: SNU-C1; assay: cells; format: cell-based; conditions: assay number 30; basal
# [7] = test system: HCT116; assay: cells; format: cell-based; conditions: assay number 25; basal
# [8] = test system: RKO; assay: cells; format: cell-based; conditions: assay number 29; basal
# [9] = test system: HT-29; assay: cells; format: cell-based; conditions: assay number 28; basal
# [10] = test system: SW480; assay: cells; format: cell-based; conditions: assay number 24; basal
# [11] = test system: DLD-1; assay: cells; format: cell-based; conditions: assay number 23; basal
# [12] = test system: HeLa cells; assay: cells; format: cell-based
# [13] = test system: endothelial tube formation in co-cultures of ECFCs and ADSCs treated with VEGF; assay: cells; format: cell-based, human
# [14] = test system: nuclear β-catenin in C2C12 cells; assay: cells; format: cell-based
structure (smiles),measurement,setting,value
CC(CCc1ccccc1)NC(C)C(O)c1ccc(O)cc1 (centres unmarked) [NCGC00015716-09],5mMGluc_INS1E SecretionMod IC50/EC50,"[1]; assay number 8, 5 mM glucose",14.4759 µM
COc1ccc(CN(CCN(C)C)c2ccccn2)cc1 [NCGC00015822-15],"IC50/EC50, 5mMGluc_INS1E SecretionMod (assay number 8)",[1]; 5 mM glucose,15.3614 µM
CN(C)CCCOc1nn(Cc2ccccc2)c2ccccc12.Cl [NCGC00016397-04],"IC50/EC50, 5mMGluc_INS1E SecretionMod (assay number 8)",[1]; 5 mM glucose,21.3864 µM
CC(=O)c1ccc2c(c1)N(CCCN(C)C)c1ccccc1S2 [NCGC00016634-04],5mMGluc_INS1E SecretionMod IC50/EC50,"[1]; assay number 8, 5 mM glucose",11.3835 µM
CCCCOc1cc(C(=O)OCCN(CC)CC)ccc1N [NCGC00016667-04],5mMGluc_INS1E SecretionMod IC50/EC50,"[1]; assay number 8, 5 mM glucose",15.5055 µM
O=C(CCCN1CCC(O)(c2ccc(Br)cc2)CC1)c1ccc(F)cc1 [NCGC00016692-05],5mMGluc_INS1E SecretionMod IC50/EC50,"[1]; assay number 8, 5 mM glucose",> 33.33 µM
COc1ccc2c(c1)C(=O)N(CCc1ccc(S(=O)(=O)NC(=O)NC3CCCCC3)cc1)C(=O)C2(C)C [NCGC00016819-05],5mMGluc_INS1E SecretionMod IC50/EC50,"[1]; assay number 8, 5 mM glucose",0.2299 µM
CCC1=C(C)CN(C(=O)NCCc2ccc(S(=O)(=O)NC(=O)NC3CCC(C)CC3)cc2)C1=O (centres unmarked) [NCGC00016960-07],5mMGluc_INS1E SecretionMod IC50/EC50,"[1]; assay number 8, 5 mM glucose",0.00406 µM
COc1ccc2c(c1OC)C(=O)O[C@@H]2[C@H]1c2cc3c(cc2CCN1C)OCO3 [NCGC00017326-05],5mMGluc_INS1E SecretionMod IC50/EC50,"[1]; assay number 8, 5 mM glucose",> 33.33 µM
Clc1ccc(COC(Cn2ccnc2)c2ccc(Cl)cc2Cl)cc1.O=[N+]([O-])O (centres unmarked) [NCGC00018258-10],hNCI-H716 GLP1 Secretion IC50/EC50,[2]; assay number 12,25.6136 µM
same,VEGF_ADSC\ECFC Angio Hoechst NucArea IC50/EC50,[3],9.932 µM
CN(C)CCOC(C)(c1ccccc1)c1ccccn1.O=C(O)CCC(=O)O (centres unmarked) [NCGC00021147-11],5mMGluc_INS1E SecretionMod IC50/EC50,"[1]; assay number 8, 5 mM glucose",> 33.33 µM
O=C1NCN(c2ccccc2)C12CCN(CCCOc1ccc(F)cc1)CC2 [NCGC00024633-07],GSK3b inh pretreated_Viability ATP HCT116 IC50/EC50,[4],5.333 µM
same,Basal_Viability ATP Colo 320 IC50/EC50,[5],11.821 µM
same,Basal_Viability ATP SNU-C1 IC50/EC50,[6],0.2416 µM
same,Basal_Viability ATP HCT116 IC50/EC50,[7],8.82 µM
same,Basal_Viability ATP RKO IC50/EC50,[8],5.3051 µM
same,Basal_Viability ATP HT-29 IC50/EC50,[9],2.458 µM
same,5mMGluc_INS1E SecretionMod IC50/EC50,"[1]; assay number 8, 5 mM glucose",> 33.33 µM
same,Basal_Viability ATP SW480 IC50/EC50,[10],4.608 µM
same,Basal_Viability ATP DLD-1 IC50/EC50,[11],0.8817 µM
CCN(CC)CCOc1ccc(Cc2ccccc2)cc1 [NCGC00024762-04],5mMGluc_INS1E SecretionMod IC50/EC50,"[1]; assay number 8, 5 mM glucose",> 33.33 µM
CNCCCCOc1ccccc1Cc1ccccc1 [NCGC00024778-02],5mMGluc_INS1E SecretionMod IC50/EC50,"[1]; assay number 8, 5 mM glucose",> 33.33 µM
COc1ccccc1N1CCN(CCCCNC(=O)c2ccc(-c3ccc(C(C)=O)cc3)cc2)CC1 [NCGC00025004-04],5mMGluc_INS1E SecretionMod IC50/EC50,"[1]; assay number 8, 5 mM glucose",> 33.33 µM
C[C@@H](C1=C(CCN(C)C)Cc2ccccc21)c1ccccn1.O=C(O)/C=C\C(=O)O [NCGC00025158-02],5mMGluc_INS1E SecretionMod IC50/EC50,"[1]; assay number 8, 5 mM glucose",8.4103 µM
Cc1ccc(C(=O)Nc2ccc(S(=O)(=O)O)c3cc(S(=O)(=O)O)cc(S(=O)(=O)O)c23)cc1NC(=O)c1cccc(NC(=O)Nc2cccc(C(=O)Nc3cc(C(=O)Nc4ccc(S(=O)(=O)O)c5cc(S(=O)(=O)O)cc(S(=O)(=O)O)c45)ccc3C)c2)c1 [NCGC00025177-08],"IC50/EC50, hNCI-H716 GLP1 Secretion (assay number 12)",[2]; concentration response,> 40 µM
CN1C(=O)CC[C@H]1c1cccnc1 [NCGC00093739-13],5mMGluc_INS1E SecretionMod IC50/EC50,"[1]; assay number 8, 5 mM glucose",> 33.33 µM
COCCCOc1ccnc(C[S+]([O-])c2nc3ccccc3[n-]2)c1C.[Na+] (centres unmarked) [NCGC00159518-05],"IC50/EC50, 5mMGluc_INS1E SecretionMod (assay number 8)",[1]; 5 mM glucose,> 33.33 µM
CN(C)CCN1C(=O)c2ccccc2N(C)c2ccccc21 [NCGC00160395-04],"IC50/EC50, 5mMGluc_INS1E SecretionMod (assay number 8)",[1]; 5 mM glucose,> 33.33 µM
CN1CCN(CCC(=O)N2c3ccccc3Sc3ccc(C(F)(F)F)cc32)CC1 [NCGC00160483-02],5mMGluc_INS1E SecretionMod IC50/EC50,"[1]; assay number 8, 5 mM glucose",> 11.11 µM
CCCC(CCC)C(=O)O [NCGC00162288-07],"IC50/EC50, 5mMGluc_INS1E SecretionMod (assay number 8)",[1]; 5 mM glucose,> 33.33 µM
O=C(CCN1CCN2CCCC2C1)N1c2ccccc2Sc2ccc(Cl)cc21 (centres unmarked) [NCGC00164539-02],5mMGluc_INS1E SecretionMod IC50/EC50,"[1]; assay number 8, 5 mM glucose",16.7552 µM
CCCN1CCCC[C@H]1C(=O)Nc1c(C)cccc1C [NCGC00164597-02],5mMGluc_INS1E SecretionMod IC50/EC50,"[1]; assay number 8, 5 mM glucose",> 33.33 µM
CCN(CC)CCNC(=O)c1c(C)[nH]c(/C=C2\C(=O)Nc3ccc(F)cc32)c1C [NCGC00164631-05],Hela CellCycMod PI 2N IC50/EC50,"[12]; assay number 14, 2N",> 10 µM
same,Hela CellCycMod PI S Phase IC50/EC50,"[12]; assay number 15, S phase",> 10 µM
same,Hela CellCycMod PI 4N IC50/EC50,"[12]; assay number 16, 4N",> 10 µM
same,Hela CellCycMod PI MI IC50/EC50,"[12]; assay number 17, MI",3.8121 µM
same,Hela CellCycMod PI Cell Number IC50/EC50,"[12]; assay number 18, cell number",1.2784 µM
same,5mMGluc_INS1E SecretionMod IC50/EC50,"[1]; assay number 8, 5 mM glucose",> 33.33 µM
same,VEGF_ADSC\ECFC Angio Hoechst NucArea IC50/EC50,[3],> 10 µM
same,VEGF_ADSC\ECFC Angio CD31 TubeArea IC50/EC50,[13],0.0254 µM
Cc1cc(-n2nc3ccc(Cl)cc3n2)c(O)c(C(C)(C)C)c1 [NCGC00166260-03],5mMGluc_INS1E SecretionMod IC50/EC50,"[1]; assay number 8, 5 mM glucose",> 33.33 µM
CCN1CCCC(OC(=O)C(c2ccccc2)c2ccccc2)C1 (centres unmarked) [NCGC00178395-04],5mMGluc_INS1E SecretionMod IC50/EC50,"[1]; assay number 8, 5 mM glucose",18.2267 µM
C[C@@H](CN(C)C)CN1c2ccccc2Sc2ccccc21.C[C@@H](CN(C)C)CN1c2ccccc2Sc2ccccc21.O=C(O)C(O)C(O)C(=O)O [NCGC00178737-05],"IC50/EC50, 5mMGluc_INS1E SecretionMod (assay number 8)",[1]; 5 mM glucose,> 33.33 µM
CCN(CC)C(C)CN1c2ccccc2Sc2ccccc21.Cl (centres unmarked) [NCGC00178860-06],5mMGluc_INS1E SecretionMod IC50/EC50,"[1]; assay number 8, 5 mM glucose",> 33.33 µM
CC(C(O)c1ccccc1)N(C)CCOC(c1ccccc1)c1ccccc1 (centres unmarked) [NCGC00181913-02],5mMGluc_INS1E SecretionMod IC50/EC50,"[1]; assay number 8, 5 mM glucose",> 33.33 µM
CCO[C@H](Cc1ccc(OCCc2ccc(OS(C)(=O)=O)cc2)cc1)C(=O)O [NCGC00182082-03],5mMGluc_INS1E SecretionMod IC50/EC50,"[1]; assay number 8, 5 mM glucose",> 33.33 µM
CN1CCC(N(Cc2cccs2)c2ccccc2)CC1 [NCGC00183847-01],5mMGluc_INS1E SecretionMod IC50/EC50,[1],20.3958 µM
Cc1ccc(-n2nc(C(C)(C)C)cc2NC(=O)Nc2ccc(OCCN3CCOCC3)c3ccccc23)cc1 [NCGC00241104-02],5mMGluc_INS1E SecretionMod IC50/EC50,"[1]; assay number 8, 5 mM glucose",> 33.33 µM
CCCCN(CCCC)C(C(N)=O)c1ccc(OC)cc1 (centres unmarked) [NCGC00261978-01],5mMGluc_INS1E SecretionMod IC50/EC50,"[1]; assay number 8, 5 mM glucose",> 33.33 µM
CCC(CN)=C(c1ccccc1)c1ccccc1.Cl [NCGC00262942-01],5mMGluc_INS1E SecretionMod IC50/EC50,"[1]; assay number 8, 5 mM glucose",10.7785 µM
Cc1ccc(O)c([C@H](CCN(C(C)C)C(C)C)c2ccccc2)c1 [NCGC00263557-01],5mMGluc_INS1E SecretionMod IC50/EC50,"[1]; assay number 8, 5 mM glucose",> 33.33 µM
"CNC(=O)c1cc(Oc2ccc(NC(=O)Nc3ccc(Cl)c(C(F)(F)F)c3)cc2)ccn1 [Sorafenib, reference compound]",activity in the Wnt potentiation module (in words),[14],"None of these agents, however, possessed appreciable activity"
